{
  "source": "patent US20080108665A1",
  "about": "“Use of N-substituted sulfoximines for control of invertebrate pests” (priority 2006, published 2008)",
  "format_in_all_cases": "in vivo",
  "key": {"[1]": {"system": "Green Peach Aphid (Myzus persicae)", "experiment": "Green peach aphid root uptake assay on pepper", "conditions": "3 days after infestation", "procedure": "These assays were designed to evaluate the possibility of using the compounds identified in the foregoing examples for applications such as nursing trays, transplanting water and/or irrigation. Systemic activity against green peach aphid was evaluated in a root uptake assay. Bell peppers (Capsicum annum var. California Wonder) were used as test plants seeded and grown in rock wool plugs. Plants were grown to expanding 1st true leaf stage. The rock wool plugs containing individual plants were placed in 1-ounce cups and surrounded with white clean sand. Five plants were used for each treatment. A volume of 5 mL of the test solutions was applied to each cup (each plant). After insecticide application, the seedlings were infested with green peach aphids and held in a growth chamber (25° C., 50% RH, 16 hr light: 8 hr dark). Number of live aphids on each plant was counted at 3 days after infestation. Calculations for % Control were based on a corrected basis compared to the populations on the reference plants.\nCorrected % Control=100*(X−Y)/X • where X=No. of live aphids on reference plants • Y=No. of live aphids on treated plants Assay 1: Compound (3) was tested at a dose range of 5-500 μg/plant. A stock solution of 1000 ppm (1 mg/mL) was made by dissolving technical test compound in acetone:ethanol (90:10). The highest test concentration (100 ppm, 500 μg/5 ml) was prepared by diluting 2.5 mL stock solution with 22.5 mL DI water. The lower test concentrations (25 mL) were similarly prepared by diluting aliquots of the stock solution with DI water. Reference plants received DI water only.\nAssay 2: Compound (2) was tested at a dose range of 0.08-50 μg/plant. A stock solution of 1000 ppm was made by dissolving 2 mg of technical test compound in 2 mL acetone. The highest test concentration (10 ppm, 50 μg/5 ml) was prepared by diluting 0.32 mL stock solution with 1.6 mL acetone and 30.08 mL DI water, containing 6% acetone. Lower test concentrations were prepared by sequentially diluting 6.5 mL higher concentration (start from the 10 ppm test solution) with 26.0 ml acetone: DI water (6:94). The solvent/diluent system (6% acetone) was used as reference."}, "[2]": {"system": "Green Leafhopper (Nephotettix sp.)", "experiment": "Green leafhopper root uptake assay on rice", "conditions": "6-day observation", "procedure": "These assays were designed to evaluate the possibility of using compounds of the invention for applications such as nursing trays, transplanting water and/or irrigation. Root-uptake systemic assays were performed on both brown planthopper and green leafhopper. Four-week-old rice seedlings were submerged in 3-cm depth of water in the bottom portion (high 5 cm, diameter 3 cm) of a 2-part glass cylinder (high 18 cm, diameter 3 cm). A metal screen was used to hold the seedlings within the bottom portion. Scotch tape was used to bind the two portions of the cylinder after setting up the seedlings. A metal cap was used to cover the cylinder. There were 4 cylinders for each treatment. The test compound was dissolved in acetone to make a 10,000 ppm stock solution which was incorporated at final test concentrations of 5, 2, 1, 0.5, 0.25 ppm in the water in which rice seedlings were submerged. Five laboratory-reared 3rd instar nymphs of brown planthopper or green leafhopper were introduced into each cylinder 3 hr after insecticide application. The treated test units were kept in a growth chamber with conditions set as followings: Temperature 28±0.5° C.; Relative humidity 70±0.5%; Photoperiod 14 hr light: […]."}, "[3]": {"system": "Cat Flea (Ctenocephalides felis)", "experiment": "Cat flea filter wool assay", "conditions": "48-hour exposure, mean", "procedure": "Compound (2) was evaluated in a dose response series to establish the range of activity of the test compound. Technical material was dissolved in acetone and diluted with the same solvent to obtain the test concentrations. Bioassays were conducted by treating polyester aquarium filter wool with 1.0 ml of the test solution, thoroughly saturating the substrate and allowing it to dry for at least 1 hour. The dry filter wool was then placed into 10 cm plastic Petri dishes and covered with the lid. Each treatment was replicated 5 times. Approximately 15 unfed cat flea adults were placed into each replicate of each dosage being evaluated. Mortality was assessed at 2, 8, 24 and 48 hours after introduction of the fleas into the test system. The mean percent mortality for each dosage group and time interval was determined and results from the 48-hour observation are presented in Table 8."}, "[4]": {"system": "Eastern Subterranean Termite (Reticulitermes flavipes)", "experiment": "Eastern subterranean termite filter paper assay", "procedure": "Activity of Compound (2) was evaluated for its activity on Eastern subterranean termite. Technical material of the test compound was formulated in acetone on a wt/wt basis to deliver 1000, 500, 200, 50, 12.5, 3.12 and 0.78 ppm to 42.5 mm Whatman No. 1 filter papers per 200 ul of pipetted solution. Each test concentration was applied to six filter papers (6 reps). Six acetone-only control units and six DI water-only control units were also prepared. The filter papers were dried overnight in the fume hood before they were placed into 60×15 mm Fisher Brand plastic Petri dishes. A volume of 200 ul DI water was pipetted onto each Filter paper at the time of test set-up, just prior to infesting with termites. Ten worker termites were added to each Petri dish and covered. The infested Petri dishes were put in the laboratory Conviron at 28° C. and 60% RH. Termite mortality was recorded at 1, 2, 4, 7, and 10 days after infestation (DAI). Throughout the duration of the test, an average of 150 ul of DI water was added daily to the filter papers to retain moisture."}},
  "data": [
    {"smiles": "CC(c1ccc(Cl)nc1)S(C)(=O)=NC#N", "note": "(stereo not shown) [Compound 2, [1-(6-chloropyridin-3-yl)ethyl](methyl)oxido-λ^4-sulfanylidenecyanamide]", "values": [
      {"measurement": "% Control, root uptake systemic", "setting": "[1]; 0.08 μg/plant", "value": 41, "unit": "%"},
      {"measurement": "% Control, root uptake systemic", "setting": "[1]; 0.4 μg/plant", "value": 48, "unit": "%"},
      {"measurement": "% Control, root uptake systemic", "setting": "[1]; 2 μg/plant", "value": 95, "unit": "%"},
      {"measurement": "% Control, root uptake systemic", "setting": "[1]; 10 μg/plant", "value": 99, "unit": "%"},
      {"measurement": "% Control, root uptake systemic Green leafhopper", "setting": "[2]; 0.25 ppm in water", "value": 45, "unit": "%"},
      {"measurement": "% Control, root uptake systemic Green leafhopper", "setting": "[2]; 0.50 ppm in water", "value": 65, "unit": "%"},
      {"measurement": "% Control, root uptake systemic Green leafhopper", "setting": "[2]; 1.00 ppm in water", "value": 100, "unit": "%"},
      {"measurement": "% Control, root uptake systemic Green leafhopper", "setting": "[2]; 2.00 ppm in water", "value": 100, "unit": "%"},
      {"measurement": "% Control, root uptake systemic Green leafhopper", "setting": "[2]; 5.00 ppm in water", "value": 100, "unit": "%"},
      {"measurement": "% Flea mortality", "setting": "[3]; 5,000.0 ppm", "value": 100, "unit": "%"},
      {"measurement": "mortality at 0.5 ppm", "setting": "[3]; Ctenocephalides felis, 0.5 ppm", "value": 52.4, "unit": "%"},
      {"measurement": "mortality at 5 ppm", "setting": "[3]; Ctenocephalides felis, 5.0 ppm", "value": 74.4, "unit": "%"},
      {"measurement": "mortality at 50 ppm", "setting": "[3]; Ctenocephalides felis, 50.0 ppm", "value": 76.6, "unit": "%"},
      {"measurement": "mortality at 500 ppm", "setting": "[3]; Ctenocephalides felis, 500.0 ppm", "value": 83.8, "unit": "%"},
      {"measurement": "mortality at 0.78 ppm", "setting": "[4]; 1 DAI", "value": 0, "unit": "%"},
      {"measurement": "mortality at 0.78 ppm", "setting": "[4]; 2 DAI", "value": 2, "unit": "%"},
      {"measurement": "mortality at 0.78 ppm", "setting": "[4]; 4 DAI", "value": 2, "unit": "%"},
      {"measurement": "mortality at 0.78 ppm", "setting": "[4]; 7 DAI", "value": 7, "unit": "%"},
      {"measurement": "mortality at 0.78 ppm", "setting": "[4]; 10 DAI", "value": 10, "unit": "%"},
      {"measurement": "mortality at 3.13 ppm", "setting": "[4]; 1 DAI", "value": 0, "unit": "%"},
      {"measurement": "mortality at 3.13 ppm", "setting": "[4]; 2 DAI", "value": 3, "unit": "%"},
      {"measurement": "mortality at 3.13 ppm", "setting": "[4]; 4 DAI", "value": 43, "unit": "%"},
      {"measurement": "mortality at 3.13 ppm", "setting": "[4]; 7 DAI", "value": 60, "unit": "%"},
      {"measurement": "mortality at 3.13 ppm", "setting": "[4]; 10 DAI", "value": 60, "unit": "%"},
      {"measurement": "mortality at 12.5 ppm", "setting": "[4]; 1 DAI", "value": 15, "unit": "%"},
      {"measurement": "mortality at 12.5 ppm", "setting": "[4]; 2 DAI", "value": 32, "unit": "%"},
      {"measurement": "mortality at 12.5 ppm", "setting": "[4]; 4 DAI", "value": 60, "unit": "%"},
      {"measurement": "mortality at 12.5 ppm", "setting": "[4]; 7 DAI", "value": 63, "unit": "%"},
      {"measurement": "mortality at 12.5 ppm", "setting": "[4]; 10 DAI", "value": 63, "unit": "%"},
      {"measurement": "mortality at 50 ppm", "setting": "[4]; 1 DAI", "value": 15, "unit": "%"},
      {"measurement": "mortality at 50 ppm", "setting": "[4]; 2 DAI", "value": 27, "unit": "%"},
      {"measurement": "mortality at 50 ppm", "setting": "[4]; 4 DAI", "value": 67, "unit": "%"},
      {"measurement": "mortality at 50 ppm", "setting": "[4]; 7 DAI", "value": 92, "unit": "%"},
      {"measurement": "mortality at 50 ppm", "setting": "[4]; 10 DAI", "value": 93, "unit": "%"},
      {"measurement": "mortality at 200 ppm", "setting": "[4]; 1 DAI", "value": 37, "unit": "%"},
      {"measurement": "mortality at 200 ppm", "setting": "[4]; 2 DAI", "value": 58, "unit": "%"},
      {"measurement": "mortality at 200 ppm", "setting": "[4]; 4 DAI", "value": 87, "unit": "%"},
      {"measurement": "mortality at 200 ppm", "setting": "[4]; 7 DAI", "value": 97, "unit": "%"},
      {"measurement": "mortality at 200 ppm", "setting": "[4]; 10 DAI", "value": 100, "unit": "%"},
      {"measurement": "mortality at 500 ppm", "setting": "[4]; 1 DAI", "value": 38, "unit": "%"},
      {"measurement": "mortality at 500 ppm", "setting": "[4]; 2 DAI", "value": 60, "unit": "%"},
      {"measurement": "mortality at 500 ppm", "setting": "[4]; 4 DAI", "value": 93, "unit": "%"},
      {"measurement": "mortality at 500 ppm", "setting": "[4]; 7 DAI", "value": 100, "unit": "%"},
      {"measurement": "mortality at 500 ppm", "setting": "[4]; 10 DAI", "value": 100, "unit": "%"},
      {"measurement": "mortality at 1000 ppm", "setting": "[4]; 1 DAI", "value": 47, "unit": "%"},
      {"measurement": "mortality at 1000 ppm", "setting": "[4]; 2 DAI", "value": 68, "unit": "%"},
      {"measurement": "mortality at 1000 ppm", "setting": "[4]; 4 DAI", "value": 92, "unit": "%"},
      {"measurement": "mortality at 1000 ppm", "setting": "[4]; 7 DAI", "value": 100, "unit": "%"},
      {"measurement": "mortality at 1000 ppm", "setting": "[4]; 10 DAI", "value": 100, "unit": "%"}
    ]}
  ]
}
